Source: paper PMC10381533, “Inhibitory Effects of the Fungal Pigment Rubiginosin C on Hyphal and Biofilm Formation in Candida albicans and Candida auris” (Journal of Fungi, 2023)
Values after ≈ are worked out from the molar mass of the structure shown.

How the values were obtained:
[1] = system: C. albicans CAI-4 HWP1-lacZ [ZK3379]; experiment: MIC assay, C. albicans CAI-4 HWP1-lacZ; assay type: cell-based, Candida albicans; settings: tested 250–2 µg/mL
Procedure: (§1) The MICs of rubiginosin- and rutilin-type azaphilones—in detail, Rub A, C, W, Z, and Rut A and B—were determined as described previously using the selected pathogens C. albicans [DSM 11225, DSM 1665], C. albicans CAI-4 HWP1-lacZ [ZK3379] and C. auris [DSM 21092] (see Table S1 for detailed information). All compounds were tested within the concentration range of 250 µg/mL–2 µg/mL for C. albicans [DSM 11225, DSM 1665], C. albicans CAI-4 HWP1-lacZ [ZK3379], C. auris [DSM 21092]. […]
(§2) All compounds were fully dissolved in
(§3) The assay was conducted as a minimum inhibitory concentration (MIC) assay in 96-well round-bottom microtiter plates using the parameters summarized in table S1 and as already described in [2]. Stocks of the test organisms were generated by growing the organisms overnight in 250 mL (Candida albicans [DSM 11225], [DSM 1665], CAI-4 HWP1-lacZ, Candida auris [DSM 21092]) or 50 mL shaking (the rest organisms) flasks filled with 25 mL of the growth medium at 140 rpm (for media and temperatures see table S1). After incubation overnight, the OD of the suspension was measured and adjusted by diluting with the respective growth medium. OD600 nm was adjusted to 0.01 for bacteria and OD600 nm to 0.1 for fungi and 150 μL of the adjusted suspensions were added to all wells of a 96-well microtiter plate (one test organism per plate). Subsequently, additional 130 μL (1 mg/mL tested compounds) or 142.5 μL (10 mg/mL tested compounds ) of suspensions, plus 20 μL (1 mg/mL tested compounds) respectively 7.5 μL (10 mg/mL tested compounds ) of the test compounds were added to first row. C ontrols (one compound/column) were added as well: MeOH were used as solvent control, while different positive controls (reference drugs ) were used for the according test organisms (see table S1). Starting from row A, 150 μL of the suspension were transferred […]
(§4) to the next row, the contents thoroughly mixed, and 150 μL transferred to the following row. The remaining 150 μL after row H were discarded.
(§5) 66.7 μg/mL in row A to 0.52 μg/mL in row H (1 mg/mL tested compounds) or 250 μg/mL in row A to 2 μg/mL in row H (10 mg/mL tested compounds).
(§6) The 96-well microtiter plates were then incubated overnight on a microplate shaker at 800 rpm at 30 or 37 °C (see table S1) and were visually evaluated the next day. The MIC is defined as the lowest concentration where no growth of the test organism was observed. A lower MIC thus corresponds to a higher antimicrobial activity […]
(§7) Table S1: MIC assay experiment parameters.
(§8) Tested organisms Strain No. Growth Incubation Positive control medium temp. [°C ] (reference)
(§9) KB-3-1 (ACC 158) cervix carcinoma as well as L929 (ACC 2) mouse fibroblasts were cultured under standard cell culture conditions (37 °C, 5% CO2, 95% humidified atmosphere). The cells were maintained in high glucose DMEM containing 10% fetal bovine serum and 100 U/mL penicillin and streptomycin (Gibco, Thermo Fisher Scientific, Waltham, USA). Cell lines were serially passaged after trypsinization, using 0.05% trypsin / 0.02% EDTA solution. The cultures were routinely monitored for potential contamination, and only mycoplasma free cultures were used. The test compounds were investigated for their anti-proliferative effect on cell lines, using the 3-(4,5-dimethylthiazol-2-yl)-2,5-diphenyltetrazolium bromide (MTT) based cell viability assay. […]

C. auris biofilm = experiment: Crystal violet biofilm formation assay, C. auris; assay type: cell-based, Candida auris; settings: for effect on formation of C. auris biofilms: CV assay, 24 h treatment
Procedure: The fungal pathogens C. auris [[…]] or C. albicans [DSM 11225] were cultured from stock in 25 mL YPD medium in a 250 mL flask (30 °C, 100 rpm, 18 h). The turbidity of the broth was measured at 280 nm using a spectrophotometer (Nanodrop 2000c, Thermo Fisher Scientific, Waltham, MA, USA) and diluted to match the turbidity of a 0.5 McFarland standard in RPMI 1640 medium (Gibco, New York, NY, USA; Thermo Fisher Scientific), supplemented with […] 3-(N-morpholino)propanesulfonic acid (MOPS, Carl Roth, Karlsruhe, Germany) for C. auris, or 0.05 McFarland standard in RPMI 1640 medium in the case of C. albicans. Subsequently, 150 μL of the fungal dispersion were added into each well of a 96-well microtiter plate (Falcon no. 351172, Thermo Fisher Scientific) and further incubated (37 °C, 150 rpm, 2 h [C. auris] or 90 min [C. albicans]). The supernatant was discarded and the plate was rinsed one time by using a PBS buffer. Afterwards, azaphilones (Rub A, C, W, Z, and Rut A and B) were serially diluted in 150 μL in fresh medium to concentrations of 250–2 μg/mL (Rub C for C. auris: 250–0.02 μg/mL). Methanol (2.5%) was used as a solvent control and both, nystatin (NYS; Thermo Fisher Scientific) and farnesol (FA; Sigma Aldrich, St. Louis, MO, USA) as positive controls (250–2 μg/mL) for C. auris and C. albicans, respectively. Plates were further incubated (37 °C, 150 rpm, 24 h). The supernatant was discarded and biofilms were washed with PBS, stained by adding 150 μL of the crystal violet (CV; Sigma Aldrich) solution (0.1%), and incubated (room temperature, 25 min). Afterwards, the plates were washed twice with PBS buffer. A total of 150 μL ethanol (95%) were applied to dissolve the biofilm-bound CV. The absorbance was measured by a plate reader (Synergy 2, BioTek, Santa Clara, CA, USA) at 570 nm for C. auris or 610 nm for C. albicans. Error bars indicate SD with duplicates in two biological repeats.

C. albicans [DSM 11225] = experiment: MIC assay, C. albicans DSM 11225; assay type: cell-based, Candida albicans; settings: tested 250–2 µg/mL
Procedure: as §1, §2, §3, §4, §5, §6, §7, §8, §9

C. auris [DSM 21092] = experiment: MIC assay, C. auris; assay type: cell-based, Candida auris; settings: tested 250–2 µg/mL
Procedure: as §1, §2, §3, §4, §5, §6, §7, §8, §9

C. albicans [DSM 1665] = system: C. albicans [DSM 1665]; design: method as in doi:10.1002/ejoc.202001661; settings: highest tested concentration 250 µg/mL; cited from earlier work

| Compound | MIC [1] | effect on formation of C. auris biofilms (C. auris biofilm) | MIC (C. albicans [DSM 11225]) | MIC (C. auris [DSM 21092]) | MIC (C. albicans [DSM 1665]) | inhibition of C. auris biofilm formation compared to solvent control (= 0%) (C. auris biofilm; 2 µg/mL) | inhibition of C. auris biofilm formation compared to solvent control (= 0%) (C. auris biofilm; 3.9 µg/mL) | inhibition of C. auris biofilm formation compared to solvent control (= 0%) (C. auris biofilm; 7.8 µg/mL) | inhibition of C. auris biofilm formation compared to solvent control (= 0%) (C. auris biofilm; 15.6 µg/mL) | inhibition of C. auris biofilm formation compared to solvent control (= 0%) (C. auris biofilm; 31.3 µg/mL) | inhibition of C. auris biofilm formation compared to solvent control (= 0%) (C. auris biofilm; 62.5 µg/mL) | inhibition of C. auris biofilm formation compared to solvent control (= 0%) (C. auris biofilm; 125 µg/mL) | inhibition of C. auris biofilm formation compared to solvent control (= 0%) (C. auris biofilm; 250 µg/mL) |
| --- | --- | --- | --- | --- | --- | --- | --- | --- | --- | --- | --- | --- | --- |
| CC(=O)OC/C=C/C1=CC2=C(CO1)C(=O)[C@@](C)(OC(=O)c1c(C)cc(O)cc1O)C(=O)/C2=C\C=C\C1=CC2=C(CO1)C(=O)[C@@](C)(O)[C@@H](OC(=O)c1c(C)cc(O)cc1O)C2 [Rut A, rutilin A] | no antimicrobial activity | did not affect the formation | no antimicrobial activity | no antimicrobial activity | no antimicrobial activity | – | – | – | – | – | – | – | – |
| C[C@@H]1[C@H](O)[C@@H](C)/C=C/C=C/CC/C=C/C=C/C=C/C=C/C(O[C@H]2O[C@H](C)[C@@H](O)[C@H](N)[C@@H]2O)CC2O[C@](O)(CC(O)C(O)CCC(O)CC(O)CC(O)CC(=O)O[C@H]1C)CC(O)C2C(=O)O (stereo partly shown) [Nystatin, nystatin] | 8.3 µg/mL (≈ 8.96 µM) | – | 8.3 µg/mL (≈ 8.96 µM) | 31.3 µg/mL (≈ 33.8 µM) | 8.3 µg/mL (≈ 8.96 µM) | / ((/) no activity) | 60 ±10% | 42 ±15% | 47 ±2% | 50 ±10% | 53 ±8% | 45 ±10% | 56 ±2% |
| CC(=O)OC/C=C/C1=CC2=C(CO1)C(=O)[C@@](C)(OC(=O)c1c(C)cc(O)cc1O)C(=O)/C2=C\C=C\C1=CC2=C(CO1)C(=O)[C@@](C)(OC(=O)c1c(C)cc(O)cc1O)[C@@H](O)C2 [Rut B, rutilin B] | no antimicrobial activity | did not affect the formation | no antimicrobial activity | no antimicrobial activity | no antimicrobial activity | – | – | – | – | – | – | – | – |
